# Data as given in ChEMBL document CHEMBL1201862, “PubChem BioAssay data set” (2004).
#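 All cell lines were grown in 96-well plates and treated with compound for 48 hours. At the GI50, growth is halved.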 Activity calls are given as the source filed them. Rule as the data show it: active = GI50 up to about 1.1 µM and inactive = higher. *1 amine or outer side, *2 acyl side, *3 side chain or, on linkers, in order; H or OH if unused. Where a SMILES comes first, the peptide text is derived from it. Bridges are numbered along the chain shown (N, C = ends). [ ]: non-standard residue; d: D form. The star is where a group is joined. X56 = CC(C)C(C)C(C(=O)[*:2])N(C)[*:1]; Picolinoyl(3-OH) = O=C(c1ncccc1O)*; NMePhg = CN[CH](C(=O)O)c1ccccc1; Hyp = O=C(O)[CH]1C[CH](O)CN1; Sar = CNCC(=O)O
# What was measured:
# Test in all cases: DTP human tumour cell line panel, 48 h
# M19-MEL = system: M19-MEL
# OVCAR-4 = system: OVCAR-4
# MOLT-4 = system: MOLT-4
# A498 = system: A498
# COLO 205 = system: COLO 205
# HOP-18 = system: HOP-18
# UO-31 = system: UO-31
# DMS-273 = system: DMS-273
# HCT-15 = system: HCT-15
# DMS-114 = system: DMS-114
# OVCAR-3 = system: OVCAR-3
# M14 = system: M14
# SR = system: SR
# LXFL 529 = system: LXFL 529
# NCI-H522 = system: NCI-H522
# SF-539 = system: SF-539
# SNB-75 = system: SNB-75
# SNB-78 = system: SNB-78
# NCI/ADR-RES = system: NCI/ADR-RES
# MDA-MB-435 = system: MDA-MB-435
Compound,GI50 (M19-MEL),GI50 (OVCAR-4),GI50 (MOLT-4),GI50 (A498),GI50 (COLO 205),GI50 (HOP-18),GI50 (UO-31),GI50 (DMS-273),GI50 (HCT-15),GI50 (DMS-114),GI50 (OVCAR-3),GI50 (M14),GI50 (SR),GI50 (LXFL 529),GI50 (NCI-H522),GI50 (SF-539),GI50 (SNB-75),GI50 (SNB-78),GI50 (NCI/ADR-RES),GI50 (MDA-MB-435)
O=C(O)CSc1ccc2nc3ccccc3c(O)c2c1,> 100 µM (inactive),> 100 µM (inactive),> 100 µM (inactive),> 100 µM (inactive),> 100 µM (inactive),> 100 µM (inactive),> 100 µM (inactive),> 100 µM (inactive),> 100 µM,> 100 µM (inactive),> 100 µM (inactive),> 100 µM (inactive),> 100 µM (inactive),> 100 µM (inactive),–,–,–,–,–,–
CCOC(=O)C(=O)Nc1cc(Cl)ccc1Cl,> 100 µM (inactive),> 100 µM (inactive),> 100 µM (inactive),> 100 µM (inactive),> 100 µM (inactive),> 100 µM (inactive),> 100 µM (inactive),> 100 µM (inactive),> 100 µM,> 100 µM (inactive),> 100 µM (inactive),> 100 µM (inactive),> 100 µM (inactive),> 100 µM (inactive),> 100 µM (inactive),> 100 µM (inactive),34.2 µM (inactive),–,–,–
CC1=C[C@]2(O)C(=O)[C@H](C)C[C@H]3[C@@H](CC[C@@](C)(O)/C=C\2C1=O)C3(C)C,18.5 µM (inactive),23.6 µM (inactive),17.9 µM (inactive),27.4 µM (inactive),16.7 µM (inactive),44.9 µM (inactive),62.5 µM (inactive),22.4 µM (inactive),17 µM,22.6 µM (inactive),19.7 µM (inactive),17.3 µM (inactive),16 µM (inactive),16.8 µM (inactive),13.7 µM (inactive),22.4 µM (inactive),33.3 µM (inactive),26.2 µM (inactive),–,–
CC(C)CC1NC(=O)C(NC(=O)c2ncccc2O)C(C)OC(=O)C(c2ccccc2)N(C)C(=O)C(C)NC(=O)C(C(C)C(C)C)N(C)C(=O)CN(C)C(=O)C2CC(O)CN2C1=O (stereo not given) ({Picolinoyl(3-OH)}-TL[Hyp][Sar][X56]A[NMePhg]; ester 1-C; configuration not given here),68.2 µM (inactive),66.5 µM (inactive),43.2 µM (inactive),> 107 µM (inactive),80.2 µM (inactive),83.6 µM (inactive),> 85.5 µM (inactive),34.8 µM (inactive),105 µM,> 119 µM (inactive),104 µM (inactive),–,–,–,124 µM (inactive),74.5 µM (inactive),36.7 µM (inactive),> 125 µM (inactive),> 125 µM (inactive),–
Cc1ccc(N2C(=O)C(=CN)C(=O)N(c3ccc(C)cc3)C2=O)cc1,> 100 µM (inactive),> 100 µM (inactive),> 100 µM (inactive),84.9 µM (inactive),> 100 µM (inactive),> 100 µM (inactive),53.5 µM (inactive),> 100 µM (inactive),62.1 µM,–,65.9 µM (inactive),> 100 µM (inactive),> 100 µM (inactive),> 100 µM (inactive),> 100 µM (inactive),> 100 µM (inactive),13.3 µM (inactive),> 100 µM (inactive),–,–
COc1ccc(/C(C=O)=C(\Cl)c2ccc(OC)c(OC)c2)cc1,> 100 µM (inactive),> 100 µM (inactive),87.3 µM (inactive),18.4 µM (inactive),–,> 100 µM (inactive),> 100 µM (inactive),49.2 µM (inactive),> 100 µM,81.3 µM (inactive),> 100 µM (inactive),> 100 µM (inactive),3.89 µM (inactive),> 100 µM (inactive),5.83 µM (inactive),57.3 µM (inactive),22.6 µM (inactive),23 µM (inactive),–,–
CCCCCCCC(=O)OC[C@@H](C[As](=O)(O)O)OC(=O)CCCCCCC,14.9 µM (inactive),11.9 µM (inactive),2.58 µM (inactive),11.2 µM (inactive),17.8 µM (inactive),18.2 µM (inactive),2.59 µM (inactive),12.1 µM (inactive),10.1 µM,10.4 µM (inactive),–,14.9 µM (inactive),4.95 µM (inactive),11.9 µM (inactive),1.56 µM (inactive),10.5 µM (inactive),11.5 µM (inactive),10.4 µM (inactive),–,–
Cc1ccc2[nH]c3c(C)c4cc[n+](C)cc4c(C)c3c2c1,–,2.54 µM (inactive),5.87 µM (inactive),0.891 µM (active),0.828 µM (active),9.66 µM (inactive),5.19 µM (inactive),2.33 µM (inactive),14.1 µM,0.61 µM (active),2.84 µM (inactive),6.43 µM (inactive),2.56 µM (inactive),0.743 µM (active),1.03 µM (active),0.849 µM (active),0.251 µM (active),0.787 µM (active),7.93 µM (inactive),2.45 µM (inactive)
